Patent publication US6297230A, “Cyanoaziridines for treating cancer” (priority 2000, dated 2001)
≈ marks a conversion by molar mass, not a printed value.

What was measured:
MCF-7/D40 cells = assay: In vitro antitumor activity, MCF-7/D40; type: cell-based; conditions: Homo sapiens, MCF7; MCF-7 breast, D40 (40-fold doxorubicin resistant)
Excerpt: (§1) 1) in vitro tumor cell viability assays using MTT and SRB dye reaction endpoints.
(§2) Sulforhodamine B (SRB) Assay for Adherent Tumor Cells
(§3) Sulforhodamine B (SRB) is a protein binding aminoxanthene dye with two sulfonic acid groups. (Lillie, R. D., H. J. Conn's Biological Stains, 9th Ed., Baltimore; Williams & Wilkins, 1977.) It quantitates whole cell protein content by the intensity of dye staining and relates this to the number of viable cells. […] The SRB assay is used for cells which normally adhere to surfaces (in this case plastic culture flasks or petri dishes) as part of their requirement for growth and division in vitro. The SRB assay is currently used by the National Cancer Institute in the anticancer drug screening program. (Skehan, et al., J Natl Cancer Inst 82:1107-1112, 1990; Rubinstein, et al., J Natl Cancer Inst 82:1113-1118, 1990.) Methodologic comparisons have shown that SRB results are linear for the number of tumor cells over a 100-fold range, and for protein content determined by a modified Lowry method or Standard Bradford (Bradford, M., Anal Biochem 72:248-254, 1976) methods. […] (Lillie, R. D., H. J. Conn's Biological Stains, 9th Ed., Baltimore; Williams & Wilkins, 1977.)
(§4) Cell cultures of 10^3 -10^7 cells growing in 96-well plastic microtiter plates are fixed with 50% trichloroacetic acid (TCA) for 30 minutes at 4° C. The cells are then stained with 0.4% (w/v) sulforhodamine B (SRB) dissolved in 1% acetic acid. Unbound dye is removed by 4 washes with 1% acetic acid, and protein-bound dye is extracted with 10 mM unbuffered Tris® base [tris(hydroxymethyl)aminomethane]. The optical density (OD) of this extracted solution is measured at […] in a microtiter plate ultraviolet absorbance detector. Cell viability is expressed as percent of control by dividing the optical densities and multiplying the result by 100.
(§5) Microculture Tetrazolium (MTT) Assay for Tumor Cells
(§6) Tumors are disaggregated into single cell suspensions using mechanical, hypoosmotic, and/or enzymatic (trypsin) methods. The cells are plated at a concentration of 3-5×10^4 per […] well into plastic 96-well plates. Growth medium containing 5-10% (vol/vol) heat-inactivated fetal bovine serum and penicillin/streptomycin (both […]) are added prior to incubation at 37° C. for 6 days. Afterwards the medium containing the drug is removed, the cells are centrifuged in fresh medium or phosphate-buffered saline (pH 7.4). A tetrazolium dye, […]-2,5-diphenyl tetrazolium (MTT), is then added. (Mossman, T., J Immunol 65:55-63, 1983.) This dye forms a colored formazan product upon activation by mitochondrial reductases in viable cells. Typically, the formazan product is solubilized in acid-propanol or DMSO. The intensity of the color is proportional to viable cell numbers and this is quantitated by spectrophotometric absorbance at 570 nm on a micro ELISA plate reader. The results are calibrated in % control absorbance from untreated tumor cells. (Alley, et al., Cancer Res 48:589-601, 1988.)
(§7) Table 3 gives the potencies of the new aziridine-1-carboxamides in a panel of human and murine tumor cells in culture. The tumor cell lines in this table are selected to represent a range of histological and growth phenotypes. Their characteristics are described below.
1.3 MCF-7/D40 and MCF-7/MITOX cell lines were developed by chronic exposure in vitro to increasing concentrations of the DNA-intercalating antitumor agents doxorubicin and mitoxantrone, respectively. […] The MCF-7/D40 cells express the cell membrane efflux pump, P-glycoprotein and are over 40-fold resistant to doxorubicin, mitoxantrone and the vinca alkaloids, vinblastine and vincristine.

[1] = system: MCF-7 breast cancer cells (sens.); assay: In vitro antitumor activity, MCF-7 breast (sensitive); type: cell-based; conditions: Homo sapiens, MCF7
Excerpt: as §1, §2, §3, §4, §5, §6, §7
1.1 MCF-7 Breast Cancer: The parental (sensitive) MCF-7 breast cancer is an estrogen-dependent adenocarcinoma originally derived from a pleural effusion in a person with advanced metastatic breast cancer. (Soule, et al., J Natl Cancer Inst 51:1409-1416, 1973.)

A-549 lung cancer cells = assay: In vitro antitumor activity, A-549 lung; type: cell-based; conditions: Homo sapiens, A549
Excerpt: as §1, §2, §3, §4, §5, §6, §7
3.0 A-549 Human Lung Cancer is an adenocarcinoma type of non-small cell lung cancer (NSCLC). It was established by Girard, et al. from a fresh tumor specimen obtained from a person with advanced lung cancer. (Girard, et al., J Natl Cancer Inst 51(5):1417-1423, 1973.) It has 5.6% plating efficiency (colony formation) on agar-coated plates, 66 modal chromosome number and grows rapidly when injected subcutaneously, forming acinar pattern tumors in immunodeficient mice. […]

tumor cell line panel = assay: Panel of tumor cell lines in vitro; type: cell-based, human and murine; conditions: all 3 MCF-7 breast lines and parental WiDr colon
Method: as §1, §2, §4, §6
Table 3 gives the potencies of the new aziridine-1-carboxamides in a panel of human and murine tumor cells in culture. […]

WiDr colon cancer cells = assay: In vitro antitumor activity, WiDr colon; type: cell-based; conditions: Homo sapiens
Excerpt: as §1, §2, §3, §4, §5, §6, §7
2.1 WiDr: The adenocarcinoma cell line WiDr was originally isolated by Noguchi, et al. from a primary colon tumor specimen from a patient with advanced colon carcinoma. (Noguchi, et al, In Vitro 35(6):401-407, 1979.) The WiDr MITOX cell line was developed for mitoxantrone resistance by growth in serially elevated concentration of mitoxantrone. […] (Dalton, et al., Cancer Res 48:1882-1888, 1988.)

| Compound | IC50 (MCF-7/D40 cells) | IC50 [1] | IC50 (A-549 lung cancer cells) | Tumor cell sensitivity in solid tumor lines (tumor cell line panel) | IC50 (WiDr colon cancer cells) |
| --- | --- | --- | --- | --- | --- |
| CNC(=O)N1CC1C#N (stereo not shown) [AMP 403, 2-Cyanoaziridine-1-(N-methyl)carboxamide] | 2.1 µg/mL (≈ 16.8 µM) | 3.3 µg/mL (≈ 26.4 µM) |  |  |  |
| N#CC1CN1C(=O)Nc1ccccc1 (stereo not shown) [AMP 404, 2-Cyanoaziridine-1-(N-phenyl)carboxamide] | 0.5 µg/mL (≈ 2.67 µM) | 0.5 µg/mL (≈ 2.67 µM) | 1.6 µg/mL (≈ 8.55 µM) | tumor cell sensitivity increased | 0.9 µg/mL (≈ 4.81 µM) |
| CCNC(=O)N1CC1C#N (stereo not shown) [AMP 406, 2-Cyanoaziridine-1-(N-ethyl)carboxamide] | 2.8 µg/mL (≈ 20.1 µM) | 4 µg/mL (≈ 28.7 µM) | 2.5 µg/mL (≈ 18 µM) |  | 5.6 µg/mL (≈ 40.2 µM) |
| CC(C)(C)NC(=O)N1CC1C#N (stereo not shown) [AMP 410, 2-Cyanoaziridine-1-(N-t-butyl)carboxamide] | 31.8 µg/mL (≈ 190 µM) | > 10 µg/mL | 33 µg/mL (≈ 197 µM) |  | 30 µg/mL (≈ 179 µM) |
| N#CC1CN1C(=O)NCc1ccccc1 (stereo not shown) [AMP 412, 2-Cyanoaziridine-1-(N-benzyl)carboxamide] | 1.2 µg/mL (≈ 5.96 µM) | 1.5 µg/mL (≈ 7.45 µM) | 1.5 µg/mL (≈ 7.45 µM) |  | 1.1 µg/mL (≈ 5.47 µM) |
| N#CC1CN1C(=O)NC1CCCCC1 (stereo not shown) [AMP 413, 2-Cyanoaziridine-1-(N-cyclohexyl)carboxamide] | 1.7 µg/mL (≈ 8.8 µM) | 2.5 µg/mL (≈ 12.9 µM) | 1.9 µg/mL (≈ 9.83 µM) |  | 0.4 µg/mL (≈ 2.07 µM) |
| N#CC1CN1C(=O)Nc1ccc(F)cc1 (stereo not shown) [AMP 415, 2-Cyanoaziridine-1-[N-(4-fluorophenyl)]carboxamide] | 0.5 µg/mL (≈ 2.44 µM) | 0.4 µg/mL (≈ 1.95 µM) | 1.3 µg/mL (≈ 6.34 µM) | tumor cell sensitivity increased | 0.4 µg/mL (≈ 1.95 µM) |
| N#CC1CN1C(=O)Nc1ccc(C(F)(F)F)cc1 (stereo not shown) [AMP 416, 2-Cyanoaziridine-1-[N-(4-trifluorophenyl)]carboxamide] | 0.4 µg/mL (≈ 1.57 µM) | 0.4 µg/mL (≈ 1.57 µM) | 1.1 µg/mL (≈ 4.31 µM) | tumor cell sensitivity increased | 0.3 µg/mL (≈ 1.18 µM) |
| CCOC(=O)c1ccc(NC(=O)N2CC2C#N)cc1 (stereo not shown) [AMP 419, 2-Cyanoaziridine-1-[N-(4-ethoxycarbonylphenyl)]carboxamide] |  |  | 1.5 µg/mL (≈ 5.79 µM) |  |  |
